Source: US11649431B2, “Cortical interneurons and other neuronal cells produced by the directed differentiation of pluripotent and multipotent cells” (MEMORIAL SLOAN-KETTERING CANCER CENTER, priority 2013, dated 2023)

B1: DKK1: recombinant DKK1 (Dickkopf protein 1), inhibitor of canonical Wnt signaling (protein, UniProt O94907 32-266, looked up)
Dickkopf-related protein 1: TLNSVLNSNAIKNLPPPLGGAAGHPGSAVSAAPGILYPGGNKYQTIDNYQPYPCAEDEECGTDEYCASPTRGGDAGVQICLACRKRRKRCMRHAMCCPGNYCKNGICVSSDQNHFRGEIEETITESFGNDHSTLDGYSRRTTLSSKMYHTKGQEGSVCLRSSDCASGLCCARHFWSKICKPVLKEGQVCTKHRRKGSHGLEIFQRCYCGEGLSCRIQKDHHQASNSSRLHTCQRH

Key:
SW480 cells = conditions: cited from earlier work
[1] = tested on: colon carcinoma cell line DLD-1; conditions: catenin-dependent colon carcinoma cell line; cited from earlier work
[2] = tested on: human ESC (WA-09, HES-3) and iPS cells (C72, SeV6); assay: FOXG1 / PAX6 induction during neural differentiation of hPSCs (immunofluorescence quantification); type: cell-based; conditions: for PAX6 expression after addition of Wnt antagonist to dual SMAD inhibition protocol: HES-3 (NKX2.1::GFP) line, FIG. 1C; for FOXG1 expression in LSB-treated cultures: Wnt antagonist added to LSB dual SMAD inhibition, XAV939 2 μM, DKK1 250 ng/ml
Excerpt: Human ESC (lines WA-09, HES-3 (NKX2.1::GFP) and iPS cells (C72, SeV6) were maintained on mouse embryonic fibroblasts (MEFs) as described previously and dissociated with Accutase (Innovative Cell Technologies) for differentiation or dispase for passaging (Chambers et al., Nat Biotechnol 27:275-280 (2009)). Media used for differentiation included KSR-medium, N2 medium (DMEM/F12 with NaHCO3, N2B supplement (Stem Cell Technologies), and Neurobasal media with B27 (Gibco) and N2 supplements (Invitrogen) as described previously. Kriks et al., Nature 480:547-551 (2011). The small molecules compounds used included: XAV939 (2 μM; Stemgent), LDN193189 (100 nM; Stemgent), SB431542 (10 μM; Tocris), and Purmorphamine (1-2 μM; Calbiochem), ascorbic acid (200 μM) and dibutyryl-cyclic AMP (dbcAMP, 200 μM; both from Sigma). Recombinant growth factors: SHH (C25II; 50-500 ng/ml), Noggin (125 ng/ml), DKK1 (250 ng/ml), and BDNF (10 ng/ml) were purchased from R&D Systems or for FGF2 (10 ng/ml) from Promega and used at the concentrations indicated in the manuscript.
Cultures were fixed in 4% paraformaldehyde in phospate-buffered saline and processed for immunofluorescent staining and confocal microscopy. Secondary antibodies used for primary antibody detection were species-specific Alexa-dye conjugates (Invitrogen). For primary antibodies, we used antibodies to rabbit FOXG1 (gift from Eseng Lai); mouse PAX6 (DSHB); mouse NKX2.1 (Labvision); goat NKX2.1 (C-20, Santa Cruz); rabbit OLIG2 (Chemicon); goat FOXA2 (Santa Cruz); rabbit LHX6 (Abeam); mouse RAX (Abnova); rabbit GAPDH (Thermo Scientific); goat DCX (Santa Cruz); mouse TUJ1 (Covance); rabbit GABA (Sigma); mouse Nestin (Thermo Scientific); rabbit KI67 (Labvision); mouse KI67 (Dako); rabbit Calbindin (Chemicon); mouse Calretinin (Swant); chick GFP (Abeam); goat Chat (Chemicon); rat somatostatin (Chemicon); mouse TH (Abeam); rabbit NOS (Swant); mouse Parvalbumin (Chemicon); mouse PSD-95 (Zymed); guinea-pig VGLUT1 (Synaptic systems); rabbit VGAT (Synaptic systems); and mouse Gephyrin (Synaptic Systems).
FOXG1 and PAX6 quantification: Using a 20× objective, 25 fields were imaged from 3 wells and from 4 independent differentiation studies. The number of DAPI+ nuclei was used as the denominator and either FOXG1+ nuclei or PAX6+ nuclei were used for the numerator. NKX2.1::GFP co-labeling: Using a 20× objective, 25-30 fields were imaged from 4 wells from 4 independent differentiations. The number of NKX2.1::GFP+ cells was used as the denominator and the numerator chosen for each analyzed marker. As a control for each marker, secondary antibody in the absence of primary antibody was used as a negative control to designate signal specificity.

motor neurons (MNs) = conditions: trophic factors removed, 72 hr; cited from earlier work

Molecule	degradation of β-catenin (SW480 cells)	protein levels of the axin-GSK3β complex (SW480 cells)	proliferation of DLD-1 cells [1]	effect on FOXG1 induction across independent hESC (HES-3, WA-09) and human iPSC lines (C72, SeV6) ([2]; FIG. 1E)	PAX6 expression after addition of Wnt antagonist to dual SMAD inhibition protocol [2]	FOXG1 expression in LSB-treated cultures [2]	healthy survival of MNs (motor neurons (MNs))
Oc1nc(-c2ccc(C(F)(F)F)cc2)nc2c1CSCC2 [XAV939, 3,5,7,8-Tetrahydro-2-[4-(trifluoromethyl)phenyl]-4H-thiopyrano[4,3-d]pyrimidin-4-one]	promotes the degradation	increases	inhibits proliferation	consistent	did not result in a loss	greatly enhanced	–
O=C1Cc2c([nH]c3ccc(Br)cc23)-c2ccccc2N1 [kenpaullone]	–	–	–	–	–	–	impressive ability to prolong
B1	–	–	–	–	did not result in a loss	greatly enhanced	–
